# According to patent US10774082B2, “Quinazoline compound” (Astellas Pharma Inc., priority 2017, dated 2020):
# pIC50: −log10 of the molar value. Like-named read-outs stand apart in the source and are kept apart here.
# Assays:
# NCI-H1373 cells = experiment: Anchorage-independent cell proliferation inhibitory action, NCI-H1373 spheroid three-dimensional culture; type: cell-based, Human; conditions: Homo sapiens, NCI-H1373, 144 h, read-out: IC50 (anchorage-independent cell proliferation inhibition)
# Experimental: Evaluation of Anchorage-Independent Cell Proliferation Inhibitory Action with Respect to Human KRAS G12C Mutation Positive Non-Small Cell Lung Cancer Strain NCI-H1373
# An anchorage-independent cell proliferation inhibitory action by the test compound was evaluated by a spheroid three-dimensional culture.
# NCI-H1373 cells were seeded in cell low adsorption U bottom 384 well plates (Prime Surface: Sumitomo Bakelite Co., Ltd.) at 36 μL/well each so as to be 5×10^2 cell per well. The cell culture was performed under the same conditions as Test example 2.
# The next day, the test compounds (six points in a range of final concentration 1,000 nM to 0.3 nM) and DMSO which is a solvent of the test compound as a negative control were diluted 100-fold with fresh medium, 4 μL each was added to each well. After culturing at 37° C. in the presence of 5% CO2 for six days, 20 μL of CellTiter Glo or to CellTiter Glo 2.0 (Promega Corporation) was added to each well. After stirring for one hour at room temperature using a plate mixer (FINEPCR), an emission signal was measured with ARVO X3 (PerkinElmer Co., Ltd.).
# When a signal value in a DMSO treatment was set as 0% inhibition, and a signal value in cell-free medium only was set as 100% inhibition, a value of 50% inhibition (IC50) was calculated through Sigmoid-Emax model nonlinear regression analysis.
# [1] = test system: ERK phosphorylation (Thr 202/Tyr 204) in NCI-H1373 cells; experiment: ERK phosphorylation inhibitory action in NCI-H1373 (Cell ELISA); type: cell-based, Human; conditions: Homo sapiens, NCI-H1373, 2 h, read-out: IC50 (ERK phosphorylation inhibition)
# Experimental: Evaluation of ERK Phosphorylation Inhibitory Action with Respect to Human KRAS G12C Mutation Positive Non-Small Cell Lung Cancer Strain NCI-H1373
# The ERK phosphorylation inhibitory action by the test compound was evaluated by measuring phosphorylation of 202th threonine (Thr 202) and 204th tyrosine (Tyr 204) of ERK on the downstream of the KRAS signal by Cell ELISA.
# NCI-H1373 cells (ATCC, CRL-5866) were seeded in 384 well plates (Greiner bio-one) at 36 μL/well each so as to be 2×10^4 cell per well. Cell culture was performed under the conditions of temperature of 37° C. in the presence of 5% CO2 by using RPMI 1640 medium (Sigma-Aldrich Co. LLC) containing 10% fetal bovine serum (GE Life Sciences).
# The next day, the test compounds (six points in a range of final concentration 1,000 nM to 0.3 nM), final concentration 1 μM of Trametinib (GlaxoSmithKline Inc.; MEK inhibitor) as a positive control, and DMSO which is a solvent of the test compound as a negative control were diluted 100-fold with fresh medium, 4 μL each was added to each well, and then cultured for 2 hours. Immediately after culturing, 30 μL of 30% glyoxal solution (Wako: 40% glyoxal diluted with Phosphate Buffered Saline (PBS; Wako)) was added to each well, and the cells were left to stand at room temperature for one hour to be fixed. Thereafter, the supernatant was removed by centrifuging the plate (110×g for 7 seconds, unless otherwise stated below under the same conditions), and 20 μL of PBS containing 0.1% Triton X-100 (Amersham Biosciences Corp.) was added to each well. After being left to stand at room temperature for 10 minutes, the supernatant was removed by centrifugation, and the same operation was repeated. Next, 20 μL of PBS containing 0.5% SDS (Invitrogen) was added to each well, and the mixture was left to stand at room temperature for 30 minutes, and then centrifuged to remove the supernatant. Subsequently, 20 μL of a blocking solution (ODYSSEY Blocking Buffer; LI-COR Biosciences) was added to each well, and left to stand at room temperature for one hour. The supernatant was removed by centrifugation, and 10 μL of a blocking solution prepared by diluting ERK (Thr 202/Tyr 204) of a phosphorylation antibody (Cell Signaling Technology, Inc.) as a primary antibody to be ½, 500 amount with respect to a stock solution was added to each well and was left to stand at 4° C. for overnight.
# The next day, a reaction liquid is removed by centrifuging the plate, 20 μL of 0.05% Tween-20-containing PBS (Thermo Scientific; 20×PBS Tween-20 diluted 20-fold with ion exchanged water) was added to each well, and each well was washed by removing the supernatant by centrifugation. Washing was performed three times in total. After washing, 10 μL of a blocking solution prepared by diluting IRDye 800CW Goat anti-Rabbit IgG (LI-COR Biosciences) as a secondary antibody to be 1/1,000 amount with respect to a stock solution was added to each well and was left to stand at room temperature for one hour. The reaction liquid was removed by centrifuging the plate, and each well was washed three times with 0.05% Tween-20-containing PBS in the same manner as after primary antibody reaction. The centrifugation after the third wash was 171×g for 17 seconds. After removal of the cleaning solution, the plate was left to air dry at room temperature for three hours or more and the fluorescent signal at 800 nm was measured by Aerius (LI-COR Biosciences).
# When a signal value at the time of adding DMSO was set as 0% inhibition, and a signal value at the time of adding 1 μM of Trametinib was set as 100% inhibition, a value of 50% inhibition (IC50) was calculated through Sigmoid-Emax model nonlinear regression analysis.
# [2] = molecular target: T1, KRAS G12C/SOS/c-Raf complex (Homo sapiens, UniProt P01116, G12C); experiment: KRAS G12C/SOS/c-Raf complex formation inhibitory action (TR-FRET); type: biochemical; conditions: one hour at room temperature, read-out: IC50 (KRAS G12C/SOS/c-Raf complex formation inhibition)
# T1 construct: Biotinylated AviTag-KRAS G12C (amino acid region 1-185, GDP)
# T1 sequence (P01116 1-185 isoform P01116-2 G12C, one chain of several): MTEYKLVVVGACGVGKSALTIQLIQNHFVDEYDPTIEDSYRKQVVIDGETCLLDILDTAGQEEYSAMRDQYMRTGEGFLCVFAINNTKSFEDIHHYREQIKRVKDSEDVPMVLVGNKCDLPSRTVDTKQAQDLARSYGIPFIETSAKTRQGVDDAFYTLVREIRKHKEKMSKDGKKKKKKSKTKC
# Experimental: Evaluation of KRAS G12C/SOS/c-Raf Complex Formation Inhibitory Action
# Human Recombinant KRAS G12C, SOS, and c-Raf protein were used, and with respect to the complex formation of these proteins, an inhibitory action of the test compound was examined through a time-resolved fluorescence resonance energy transfer (TR-FRET) method.
# Biotinylated AviTag-KRAS G12C (amino acid region 1-185, GDP) (2.5 μL; 400 nM) dissolved in assay buffer (50 mM HEPES, 150 mM NaCl, 5 mM MgCl2, 0.05% Tween 20, pH 7.4) and test compound were added in a volume of 2.5 μL from 4,000 nM to 4 nM were added to 384 well plate (Corning Inc). Son of Sevenless (SOS) (amino acid region 564-1049, 2.5 μL; 1.3 μM) and c-Raf (amino acid region 51-131) GST containing GTP (Sigma-Aldrich Co. LLC) (2.5 μL; 130 nM and 4 μM of each) were added to the above mixture, and the resultant was left to stand for one hour at room temperature. Thereafter, a mixed solution (10 μL) of LANCE Ulight-anti-GST (120 nM, PerkinElmer. Co., Ltd) and LANCE Eu-W1024 labeled Streptoavidin (100 ng/mL, PerkinElmer. Co., Ltd) was added, and a fluorescence intensity on the condition of wavelength of 620 nm and 665 nm was measured by using EnVision 2103 Multilabel Reader (PerkinElmer Co., Ltd.) under the condition of excitation wavelength of 337 nm. […] In Tables, Ex represents Example numbers described later. In addition, in Tables, Compound C represents a test compound of Example I-59 disclosed in Pamphlet of International Publication No. WO 2016/164675, and the structures of Reference Example 1 and Reference Example 2 are indicated in Table 168 described below (the same shall apply hereinafter).
# [3] = NCI-H1373 spheroid, six days, CellTiter Glo
# [4] = NCI-H1373 cells, cultured for 2 hours, 100% = 1 μM Trametinib
SMILES,pIC50 (NCI-H1373 cells; [3]),"pIC50 [1, 4]",pIC50 [2],pIC50 (NCI-H1373 cells),pIC50 [1]
C=CC(=O)N1CC2(CCN(c3nc(OCCCN4CCOCC4)nc4c(OCC)c(-c5c(C)ccc6[nH]ncc56)c(C=C)cc34)CC2)C1 [Example 85],7.57,7.77,7.25,,
C=CC(=O)N1CC2(CCN(c3nc(OC4CCN(C(=O)N(C)C)CC4)nc4c(OCC(F)(F)F)c(-c5c(C)ccc6[nH]ncc56)c(C=C)cc34)CC2)C1 [Example 70],7.15,7.74,7.10,,
"C=CC(=O)N1CC2(CCN(c3nc(OC4CCN(CC)CC4)nc4c(OC)c(-c5c(Cl)ccc6[nH]ncc56)c(C=C)cc34)CC2)C1 [Reference example 1, reference compound]",7.49,7.66,7.43,,
C=CC(=O)N1CC2(CCN(c3nc(OC4CCN(CCOCC5CC5)CC4)nc4c(OCC(F)(F)F)c(-c5c(C)ccc6[nH]ncc56)c(C=C)cc34)CC2)C1 [Ex 41],7.85,8.21,7.38,,
C=CC(=O)N1CC2(CCN(c3nc(OC4CCN(C)CC4)nc4c(OC5CCC5)c(-c5c(C)ccc6[nH]ncc56)c(C=C)cc34)CC2)C1 [Example 17],,,7.47,7.92,8.31
C=CC(=O)N1CC2(CCN(c3nc(OC4CCN(C(C)C)CC4)nc4c(OCC)c(-c5c(C)ccc6[nH]ncc56)c(C=C)cc34)CC2)C1 [Example 12],,,7.64,7.96,8.17
C=CC(=O)N1CC2(CCN(c3nc(OC4CCN(CCOC)CC4)nc4c(OC(F)F)c(-c5c(C)ccc6[nH]ncc56)c(C=C)cc34)CC2)C1 [Example 53],8.01,8.17,7.43,,
C=CC(=O)N1CC2(CCN(c3nc(NC4CCN(C)CC4)nc4c(OCC(F)(F)F)c(-c5c(C)ccc6[nH]ncc56)c(C=C)cc34)CC2)C1 [Example 68],7.80,7.92,7.35,,
C=CC(=O)N1CC2(CCN(c3nc(OC4CCN(CCOC)CC4)nc4c(OCC(F)(F)F)c(-c5c(C)cc(F)c6[nH]ncc56)c(C=C)cc34)CC2)C1 [Example 78],7.62,7.80,7.33,,
C=CC(=O)N1CC2(CCN(c3nc(OC4CCN(CCOC)CC4)nc4c(OCC(F)(F)F)c(-c5c(C=C)ccc6[nH]ncc56)c(C=C)cc34)CC2)C1 [Example 49],8.34,8.54,7.39,,
C=CC(=O)N1CC2(CCN(c3nc(OC4CCN(CCOC)CC4)nc4c(OCC(F)(F)F)c(-c5cccc6[nH]ncc56)c(C5CC5)cc34)CC2)C1 [Example 87],7.46,7.74,7.41,,

# Now from value to molecule, other results behind:
pIC50 (NCI-H1373 cells; [3]),"pIC50 [1, 4]",pIC50 [2],SMILES,pIC50 (NCI-H1373 cells),pIC50 [1]
7.57,7.85,7.19,C=CC(=O)N1CC2(CCN(c3nc(OC4CCN(CC)CC4)nc4c(OCC)c(-c5c(Cl)ccc6[nH]ncc56)c(C=C)cc34)CC2)C1 [Example 21],,
7.66,7.77,7.46,"C=CC(=O)N1CC2(CCN(c3nc(OC[C@@H]4CCCN4C)nc4c(OC)c(-c5c(C)ccc6[nH]ncc56)c(C=C)cc34)CC2)C1 [Reference example 2, reference compound]",,
7.89,8.36,7.36,C=CC(=O)N1CC2(CCN(c3nc(N4CCC(N(C)C)CC4)nc4c(OCC(F)(F)F)c(-c5c(C)ccc6[nH]ncc56)c(C=C)cc34)CC2)C1 [Example 42],,
7.92,8.19,7.47,C=CC(=O)N1CC2(CCN(c3nc(OC4CCN(C)CC4)nc4c(OCC(F)F)c(-c5c(C)ccc6[nH]ncc56)c(C=C)cc34)CC2)C1 [Ex 1],,
8.46,8.59,7.49,C=CC(=O)N1CC2(CCN(c3nc(OC4CCN(CC)CC4)nc4c(OCC)c(-c5c(C)c(F)cc6[nH]ncc56)c(C=C)cc34)CC2)C1 [Example 8],,
7.82,8.04,7.49,C=CC(=O)N1CC2(CCN(c3nc(O[C@H]4CC[C@@H](N(C)C)CC4)nc4c(OCC(F)(F)F)c(-c5c(C)ccc6[nH]ncc56)c(C=C)cc34)CC2)C1 [Example 64],,
7.82,8.35,7.32,C=CC(=O)N1CC2(CCN(c3nc(OC4CCN(CC)CC4)nc4c(OC5CCC5)c(-c5c(C)ccc6[nH]ncc56)c(C5CC5)cc34)CC2)C1 [Example 19],,
7.41,8.09,7.28,C=CC(=O)N1CC2(CCN(c3nc(OC4CCN(C)CC4)nc4c(OCc5cccc(OC)c5)c(-c5c(C)ccc6[nH]ncc56)c(C=C)cc34)CC2)C1 [Example 57],,
7.59,7.80,7.39,C=CC(=O)N1CC2(CCN(c3nc(OC4CCN(CCS(C)(=O)=O)CC4)nc4c(OCC(F)(F)F)c(-c5c(C)ccc6[nH]ncc56)c(C=C)cc34)CC2)C1 [Example 81],,
